Key:
HeLa cells = test: Cytotoxicity assay; assay type: cell-based, human; conditions: 10, 1, 0.1 and 0.01 μM; 24 or 48 h; triplicate
CREBBP = assay type: binding, human; conditions: from ΔTm^obs, compound 100 μM

SMILES | cytotoxicity in HeLa cells (MTT) (HeLa cells) | selectivity for CREBBP over the BET bromodomains (CREBBP)
Cc1noc(C)c1-c1ccc2c(c1)CN(C)C(=O)N2 [Compound 1, 6-(3,5-dimethylisoxazol-4-yl)-3-methyl-3,4-dihydroquinazolin-2(1H)-one] | significant cytotoxicity | –
CCOc1cc(C(=O)O)cc(-c2c(C)noc2C)c1 [Compound 4b, 3-(3,5-Dimethylisoxazol-4-yl)-5-ethoxybenzoic acid] | did not show any cytotoxicity | modest
CCOc1cc(-c2c(C)noc2C)cc(C(C)O)c1 (racemic) [Compound 4d, (RS)-1-(3-(3,5-Dimethylisoxazol-4-yl)-5-ethoxyphenyl)ethanol] | did not show any cytotoxicity | –
